{"source": "paper PMC5679103", "about": "(Journal of natural products, 2017)", "key": {"[1]": {"system": "P. falciparum Dd2 strain", "assay": "Antiplasmodial 72 h growth assay", "assay_type": "cell-based, Plasmodium falciparum", "settings": "relative to trichospirolide B (2)"}, "[2]": {"assay": "Stability on storage", "assay_type": "physicochemical", "settings": "storage at −23 °C"}}, "data": [{"smiles": "C=C(C)C(=O)O[C@H]1C/C(C)=C\\C(=O)/C=C(C)/C=C2/OC(=O)C(COC(C)=O)=C21", "note": "[Compound 1, 1(10)Z,3E,5E,7(12)Z-(8S)-13-acetoxy-8-methacryloyloxy-2-oxogermacra-1,3,5,7-tetraen-6,12-olide]", "values": [{"measurement": "Fold higher antiplasmodial potency than trichospirolide B", "setting": "[1]", "result": 25, "unit": "fold"}]}, {"smiles": "C=C(C)C(=O)O[C@H]1C/C(C)=C\\C(=O)C[C@@]2(C)O[C@H]2[C@H]2OC(=O)C(COC(C)=O)=C12", "note": "[Compound 3, 1(10)Z,7(11)Z-(4R,5S,6S,8S)-13-acetoxy-4,5-epoxy-8-methacryloyloxy-2-oxogermacra-1,7-dien-6,12-olide]", "values": [{"measurement": "Fold higher antiplasmodial potency than trichospirolide B", "setting": "[1]", "result": 3, "unit": "fold"}]}, {"smiles": "C=C(C)C(=O)O[C@@H]1C/C(C)=C\\[C@@]2(O)C=C(C)[C@H](O2)[C@H]2OC(=O)C(COC(C)=O)=C12", "note": "[Compound 4, 1(10)Z,3Z,7(11)Z-(2S,5S,6S,8R)-13-acetoxy-2,5-epoxy-2-hydroxy-8-O-methacryloyloxygermacra-1(10),3,7(11)-trien-6,12-olide]", "values": [{"measurement": "Stability on storage", "setting": "[2]", "result": "moderately unstable"}]}]}
